Assays:
Format in all cases: cell-based
[1] = tested on: Fusarium oxysporum DSM 841; assay: Antifungal microdilution MIC test; details: DSM841, comparative test
Experimental: (§1) In vitro tests of the antifungal activity of the polymers were performed with respect to selected fungal species obtained from international culture collections and the microorganism collection in the Department of Infection Control and Mycology, Chair of Microbiology, Jagiellonian University Medical College. The test was performed using the microdilution method in a liquid medium on flat-bottomed, 96-well polypropylene titration plates. The applied methodology was based on antifungal susceptibility testing procedures developed by the European Committee on Antimicrobial Susceptibility Testing (EUCAST) and on the Hancock Lab procedure for antimicrobial cationic peptides.
(§2) The test compounds were dissolved in sterile distilled water and starting concentrations of 5 g/L were prepared, from which a series of two-fold dilutions in water were obtained. Respective polymer dilutions were transferred in a volume of 20 μL on titration plates (wells 1-10). 20 μL of sterile distilled water was transferred to each of wells 11 and 12. Wells 1-11 were inoculated with fungi in a volume of 180 μL of fungal cell suspensions in a liquid medium, and 180 μL of the sterile medium was transferred to well 12. Fungal suspensions were prepared from fresh cultures on agar media by collecting spores using a sterile swab into sterile distilled water or sterile distilled water with Tween-20 added. Suspensions of certain strains were filtered to remove any hyphal elements (filters with a pore diameter of 20 μm and 10 μm were used). The suspensions were brought to a density of 0.5 on the McFarland scale, and subsequently diluted to 1:20 in a liquid RPMI-1640 medium with L-glutamine and without sodium bicarbonate, supplemented with glucose (2%) and buffered morpholinopropanesulfonic acid (MOPS) (0.165 mol/L).
(§3) Final polymer concentrations on plates after adding fungal suspensions in the liquid medium were 0.49-250 mg/L or 0.98-500 mg/L.
(§4) Incubation was performed at room temperature, 27° C., 37° C., depending on the fungal species, until fungal growth was obtained in growth control (well 11). After the incubation period, fungal growth was evaluated visually and the lowest polymer concentrations that caused complete fungal growth inhibition (MIC (minimal inhibitory concentration) values) were determined. […]

[2] = tested on: Candida glabrata ATCC 15545; assay: Antifungal microdilution MIC test; details: Nakaseomyces glabratus, ATCC15545, comparative test
Experimental: as §1, §2, §3, §4

[3] = tested on: Candida krusei ATCC 6258; assay: Antifungal microdilution MIC test; details: Pichia kudriavzevii, ATCC6258, comparative test
Experimental: as §1, §2, §3, §4

[4] = tested on: Fusarium solani DSM 1164; assay: Antifungal microdilution MIC test; details: DSM1164, comparative test
Experimental: as §1, §2, §3, §4

[5] = tested on: Fusarium oxysporum 109; assay: Antifungal microdilution MIC test; details: comparative test
Experimental: as §1, §2, §3, §4

[6] = tested on: Fusarium solani strain 155; assay: Antifungal microdilution MIC test; details: comparative test
Experimental: as §1, §2, §3
(§5) Incubation was performed at room temperature, 27° C., 37° C., depending on the fungal species, until fungal growth was obtained in growth control (well 11). After the incubation period, fungal growth was evaluated visually and the lowest polymer concentrations that caused complete fungal growth inhibition (MIC (minimal inhibitory concentration) values) were determined.
(§6) A test was performed on selected fungal strains to compare MIC values of the PMAPTAC133 polymer with the MIC values of two known antifungal drugs (terbinafine and ciclopirox), used in the treatment of fungal infections of glabrous skin, hairy skin and nails.
(§7) The procedure described in the section above (Example 8) was used in the testing.
(§8) The drugs were dissolved in dimethyl sulfoxide (DMSO) and starting concentrations of 4 g/L were prepared, from which series of two-fold dilutions in DMSO were obtained. Respective […] concentrations were diluted to 1:100 in sterile water and subsequently transferred to wells 1-10 on a titration plate in a volume of 20 μL. Wells 11 and 12 were filled up with 20 μL DMSO diluted to 1:10 in water. Wells 1-11 were inoculated with fungi in a volume of 180 μL of fungal cell suspensions in a liquid medium, and […] of the sterile medium was transferred to well 12. Final drug concentrations on plates after adding fungal suspensions in the liquid medium were 0.008-4 mg/L.

[7] = tested on: Trichophyton interdigitale D182; assay: Antifungal microdilution MIC test; details: comparative test
Experimental: as §1, §2, §3, §5, §6, §7, §8

[8] = tested on: Trichophyton rubrum D320; assay: Antifungal microdilution MIC test; details: comparative test
Experimental: as §1, §2, §3, §5, §6, §7, §8

[9] = tested on: Aspergillus fumigatus DSM 819; assay: Antifungal microdilution MIC test; details: comparative test; for MIC: Aspergillus fumigatus, DSM819
Experimental: as §1, §2, §3, §5, §6, §7, §8

[10] = tested on: Trichophyton interdigitale 251; assay: Antifungal microdilution MIC test; details: comparative test, incubation time 72 h
Experimental: as §1, §2, §3, §5, §6, §7, §8

[11] = tested on: Trichophyton rubrum D197; assay: Antifungal microdilution MIC test; details: comparative test
Experimental: as §1, §2, §3, §5, §6, §7, §8

[12] = tested on: Trichophyton tonsurans DSM 12285; assay: Antifungal microdilution MIC test; details: DSM12285, comparative test
Experimental: as §1, §2, §3, §5, §6, §7, §8

[13] = tested on: Aspergillus flavus ATCC 204304; assay: Antifungal microdilution MIC test; details: comparative test; for MIC: Aspergillus flavus, ATCC204304
Experimental: as §1, §2, §3, §5, §6, §7, §8

[14] = tested on: Trichophyton rubrum DSM 16111; assay: Antifungal microdilution MIC test; details: DSM16111, comparative test
Experimental: as §1, §2, §3, §5, §6, §7, §8

[15] = tested on: Cryptococcus neoformans; assay: Antifungal microdilution MIC test; details: Cryptococcus neoformans, comparative test
Experimental: as §1, §2, §3, §5, §6, §7, §8

[16] = tested on: Aspergillus brasiliensis ATCC 16404; assay: Antifungal microdilution MIC test; details: comparative test; for MIC: Aspergillus brasiliensis, ATCC16404
Experimental: as §1, §2, §3, §5, §6, §7, §8

[17] = tested on: Trichophyton mentagrophytes ATCC 18484; assay: Antifungal microdilution MIC test; details: comparative test; for MIC: Trichophyton mentagrophytes, ATCC18484
Experimental: as §1, §2, §3, §5, §6, §7, §8

[18] = tested on: Trichophyton tonsurans 264; assay: Antifungal microdilution MIC test; details: comparative test
Experimental: as §1, §2, §3, §5, §6, §7, §8

[19] = tested on: Trichophyton interdigitale DSM4167; assay: Antifungal microdilution MIC test; details: comparative test
Experimental: as §1, §2, §3, §5, §6, §7, §8

[20] = tested on: Candida albicans ATCC 90028; assay: Antifungal microdilution MIC test; details: ATCC90028, comparative test
Experimental: as §1, §2, §3, §5, §6, §7, §8

[21] = tested on: Scopulariopsis brevicaulis 34; assay: Antifungal microdilution MIC test; details: comparative test
Experimental: as §1, §2, §3, §5, §6, §7, §8

[22] = tested on: Aspergillus terreus DSM 1958; assay: Antifungal microdilution MIC test; details: comparative test; for MIC: Aspergillus terreus, DSM1958
Experimental: as §1, §2, §3, §5, §6, §7, §8

[23] = tested on: Scopulariopsis brevicaulis DSM 9122; assay: Antifungal microdilution MIC test; details: DSM9122, comparative test
Experimental: as §1, §2, §3, §5, §6, §7, §8

[24] = tested on: Aspergillus fumigatus SU 56; assay: Antifungal microdilution MIC test; details: comparative test; for MIC: Aspergillus fumigatus, SU56
Experimental: as §1, §2, §3, §5, §6, §7, §8

[25] = tested on: 3T3-L1 murine embryonic fibroblast line; assay: Neutral red uptake toxicity test, 3T3-L1 fibroblasts; details: medium with serum
Experimental: Preliminary tests were conducted in the 3T3-L1 murine embryonic fibroblast line (ATCC, CL-173™), an immortalized line (highly tolerant cells). DMEM was used as the medium. 24 h after seeding and successful adhesion, polymers dissolved in the medium were added to the cells (the medium was first replaced with a serum-free medium in serum-free experiments), and viable cells were quantified after another 24 h using the neutral red uptake assay.
The toxicity of ciclopirox and terbinafine, two commercially used antifungal drugs, was evaluated in similar conditions (the same cell line, medium composition and exposure time).

CN(C/C=C/C#CC(C)(C)C)Cc1cccc2ccccc12 [Terbinafine, terbinafine]
2 mg/L: concentration with growth suppression ([9]; incubation time 24 h) | concentration with growth suppression ([13]; incubation time 48 h) | concentration with (clear) growth suppression ([16]; incubation time 48 h) | concentration with growth suppression ([22]; incubation time 48 h)
>4 mg/L: concentration with growth suppression ([24]; incubation time 48 h)
4 µg/mL: MIC ([13]; incubation time 24 h) | MIC ([24]; incubation time 24 h)
2 µg/mL: MIC ([8]; incubation time 72 h) | MIC ([16]; incubation time 24 h) | MIC ([22]; incubation time 24 h)
0.25 mg/L: concentration with marginal growth ([17]; incubation time 48 h)
> 4 µg/mL: MIC ([1]; incubation time 24 h) | MIC ([1]; incubation time 48 h) | MIC ([2]; incubation time 24 h) | MIC ([2]; incubation time 48 h) | MIC ([3]; incubation time 24 h) | MIC ([3]; incubation time 48 h) | MIC ([4]; incubation time 24 h) | MIC ([4]; incubation time 48 h) | MIC ([5]; incubation time 24 h) | MIC ([5]; incubation time 48 h) | MIC ([6]; incubation time 24 h) | MIC ([6]; incubation time 48 h) | MIC ([9]; incubation time 24 h) | MIC ([9]; incubation time 48 h) | MIC ([13]; incubation time 48 h) | MIC ([15]; incubation time 24 h) | MIC ([15]; incubation time 48 h) | MIC ([16]; incubation time 48 h) | MIC ([20]; incubation time 24 h) | MIC ([20]; incubation time 48 h) | MIC ([21]; incubation time 24 h) | MIC ([21]; incubation time 48 h) | MIC ([22]; incubation time 48 h) | MIC ([23]; incubation time 24 h) | MIC ([23]; incubation time 48 h) | MIC ([24]; incubation time 48 h)
≤ 10%: viable cells ([25]; concentrations of 50, 75 and 100 μg/mL, 24 h)
25000 ng/mL: concentration at which the number of viable cells decreased to less than 50% ([25]; 24 h exposure)
0.06 µg/mL: MIC ([14]; incubation time 24 h)
0.125 µg/mL: MIC ([8]; incubation time 48 h) | MIC ([11]; incubation time 48 h) | MIC ([17]; incubation time 24 h)
1 µg/mL: MIC [10] | MIC ([17]; incubation time 72 h)
0.25 µg/mL: MIC ([7]; incubation time 48 h) | MIC ([11]; incubation time 72 h) | MIC ([12]; incubation time 48 h) | MIC ([12]; incubation time 72 h) | MIC ([14]; incubation time 48 h) | MIC ([14]; incubation time 72 h) | MIC ([19]; incubation time 48 h) | MIC ([19]; incubation time 72 h)
0.5 µg/mL: MIC ([7]; incubation time 72 h) | MIC ([17]; incubation time 48 h) | MIC ([18]; incubation time 48 h) | MIC ([18]; incubation time 72 h)

Source: patent publication US20260258172A1, “CATIONIC POLYMERS WITH SELECTIVE ANTIFUNGAL PROPERTIES” (Uniwersytet Jagiellonski, priority 2022, published 2026)
